Data as given in US8507464B2, “Phosphoramidate alkylator prodrugs” (Threshold Pharmaceuticals, Inc., priority 2005, dated 2013).
Like-named read-outs stand apart in the source and are kept apart here.

Legend:
NCI H460 xenograft [1] = test: NCI H460 non small cell lung carcinoma xenograft mouse model (Example 48); assay type: in vivo; conditions: Group 6: Taxol (q2d × 3)/week × 2 weeks; day 29; vs vehicle
Description: Female CB17/SCID mice (purchased from Charles River, Cambridge, Mass.), 7-8 weeks of age, were allowed to acclimatize for at least three days, and handled under pathogen-free conditions. Human […] cell line NCI H460 was obtained from the American Type Culture Collection. The cell lines were cultured and harvested according to the procedure described in Example 47 and inoculated at 1×10^6 cells/animal in the peritoneal subcutaneous space. When the tumors grew to an average volume of 100 mm^3 (day 8), […], as tabulated in the table below: Compound 25 (2.5 mg/ml in 10% PEG; administration route—i.p.) and Taxol (1 mg/ml in 5% EtOH, 5% Cremophor and 90% saline; administration—i.v. 2 h after administration of Compound 25). The body weight and tumor volumes were measured as described in Example 47 above.
Results are presented in Table X2 based on tumor volume measurement on day 29 when vehicle treated mice had reached a volume of 946 mm^3. Groups of 5 mice receiving saline or no treatment were added in order to indicate any vehicle effects but are not used for comparisons in this analysis.

NCI H460 xenograft [2] = assay type: in vivo, mouse; conditions: day 27, vs vehicle
Description: Comparisons were made on day 27 because that was the last day of measurements for the vehicle group and those animals were sacrificed.

NCI-H460 cells [3] = test: Antiproliferation assay - oxygen dependence; assay type: cell-based, human; conditions: Homo sapiens
Description: . […] The calculated IC50 values (μM) are tabulated in Table Y1 (H460 cells) or Table Y2 (HT29 cells) below.

[4] = assay type: physicochemical; conditions: glassy carbon, Ag/AgCl reference
[5] = logP (partitioning between octanol and water); assay type: physicochemical; conditions: logP
Description: As used herein “LogP” means a measure of lipophilicity of a substance determined based on the partitioning of the substance betwen octanol and water.

HT29 xenograft = test: HT-29 human colon carcinoma xenograft mouse model (Example 50); assay type: in vivo
Description: Female CB17/SCID mice (purchased from Charles River, Cambridge, Mass.), 7-8 weeks of age, were allowed to acclimatize for at least three days, and handled under pathogen-free conditions. Human colon carcinoma cell line HT29 was obtained from the American Type Culture Collection. The cell lines were cultured and harvested as described in Example 47 above, and inoculated at 3×10^6 cells/animal in the peritoneal subcutaneous space. […]; in saline) on the days the combination therapy was scheduled; 5FU alone (in saline), or CDDP alone.
In control groups, tumors were implanted in two locations as part of a separate study of effect of location on control group tumor growth. […] The body weight and tumor volume were measured as described in Example 47. Tumor growth inhibition measured on day 25 when vehicle tumors had reached the maximal size and animals in that group were sacrificed is tabulated below.

in vivo [6] = conditions: CD-1, mouse, ip, 50 mg/kg
[7] = test system: H460 lung carcinoma spheroids; test: Spheroid model, clonogenic survival; conditions: Homo sapiens, NCI-H460, 2 h, read-out: IC90 H460 Spheroid 10% O2
NCI-H460 cells [8] = test: Clonogenic assay - oxygen dependence; conditions: Homo sapiens
[9] = test system: H460 cells exposed as monolayers; test: Clonogenic survival of monolayer cells (Example 35); conditions: Homo sapiens, NCI-H460, 2 h
NCI-H460 cells [10] = test: Antiproliferation assay (Alamar Blue), anoxia vs air; conditions: Homo sapiens, NCI-H460, 2 h
MES-SA cells = test: as above; conditions: Homo sapiens, 2 h
MES-SA/Dx5 cells = test: as above; conditions: Homo sapiens, MES-SA/Dx5, 2 h
H460 cell line = test: Anti-proliferation assay, hypoxia vs normoxia (Table 1A); conditions: for IC50: Homo sapiens; for HCR P: ratio of IC50 in normoxia and hypoxia
[11] = test system: mouse (MLM) liver microsomal proteins; assay type: in vitro ADME; conditions: for Metabolic stability (MLM) (% at 30 min): Table 2B
in vivo [12] = test: in vivo
[13] = Plasma stability (Table 2B); conditions: 30 min
HT29 cells = test: Antiproliferation assay (Alamar Blue), anoxia vs air; conditions: Homo sapiens, HT-29, 2 h
HT29 = test: Anti-proliferation assay, hypoxia vs normoxia (Table 1B); conditions: for IC50: Homo sapiens
DX-5 = test: as above
MTD (Table 2B) = conditions: in vivo
[14] = test system: human (HLM) liver microsomal proteins; test: Metabolic stability in liver microsomal protein; assay type: in vitro ADME; conditions: Table 2A, second study, 5 μM
[15] = test system: rat (RLM) liver microsomal proteins; test: Metabolic stability in liver microsomal protein; assay type: in vitro ADME; conditions: 5 μM
[16] = read-out: IC50 H460 Air, air, 2 h exposure
[17] = read-out: IC50 H460 Anoxia, anoxia, 2 h exposure
[18] = read-out: IC50 MES-SA/Dx5 Anoxia
[19] = NCI-H460, read-out: Hypoxia P (proliferation IC50)
[20] = NCI-H460, read-out: Normoxia P (proliferation IC50)
[21] = HT-29, read-out: HT29 P H (proliferation IC50, hypoxia)
[22] = HT-29, read-out: HT29 P N (proliferation IC50, normoxic)
[23] = read-out: DX-5 P H (proliferation IC50, hypoxia)
[24] = read-out: DX-5 P N (proliferation IC50, normoxic)

Q: Which results are given for CC(=O)O[C@H]1C(=O)[C@@]2(C)[C@H]([C@H](OC(=O)c3ccccc3)[C@]3(O)C[C@H](OC(=O)[C@H](O)[C@@H](NC(=O)c4ccccc4)c4ccccc4)C(C)=C1C3(C)C)[C@]1(OC(C)=O)CO[C@@H]1C[C@@H]2O [Taxol, paclitaxel, reference compound]?
A: % Inhibition vs Group 2 (NCI H460 xenograft [1]): 46%; % Inhibition vs Group 1 (NCI H460 xenograft [2]; Group 2: Taxol 10 mg/kg (q2d × 3)/week × 2 week): 36.7%

Q: Which IC50 (NCI-H460 cells [3]; NCI-H460, read-out: IC50 in H460 cells, 0.6% O2) does the source give for O=[N+]([O-])c1ccc(COP(=O)(NCCBr)NCCBr)o1 [Compound 24] here?
A: 850 nM

Q: What about the IC50 (NCI-H460 cells [3]; NCI-H460, read-out: IC50 in H460 cells, Air) of the same molecule?
A: > 1000 nM

Q: What about the IC50 (NCI-H460 cells [3]; NCI-H460, read-out: IC50 in H460 cells, N2) of the same molecule?
A: 7 nM

Q: And the “Reduction Potentials, 100 mV/sec” value ([4]; scan rate 100 mV/sec)?
A: −568 mV

Q: And the “Reduction Potentials, 10,000 mV/sec” value ([4]; scan rate 10,000 mV/sec)?
A: −636 mV

Q: What about the logP [5] of the same molecule?
A: < 0

Q: And the “% Inhibition vs Group 1” value (NCI H460 xenograft [2]; Group 3: Compound 24 3 mg/kg (q1d × 5 d)/week × 3 week)?
A: 39.9%

Q: What about the “tumor growth inhibition, monotherapy” value (HT29 xenograft) of the same molecule?
A: more than 40%

Q: What about the body weight (HT29 xenograft; during treatment, recovered after end of treatment) of the same molecule?
A: minor decreases in weights

Q: What about the AUC (in vivo [6]) of the same molecule?
A: 64000 ng·h/mL

Q: What about the Cmax (in vivo [6]) of the same molecule?
A: 7600 ng/mL

Q: And the Tmax (in vivo [6])?
A: 5 min

Q: What about the half-life (in vivo [6]) of the same molecule?
A: 4.1 min

Q: And the IC90 [7]?
A: 3000 nM

Q: What about the IC90 (NCI-H460 cells [8]; NCI-H460, read-out: IC90 H460 0.6% O2) of the same molecule?
A: 250 nM

Q: And the IC90 (NCI-H460 cells [8]; NCI-H460, read-out: IC90 H460 Air)?
A: 14000 nM

Q: And the IC90 (NCI-H460 cells [8]; NCI-H460, read-out: IC90 H460 N2)?
A: 70 nM

Q: And the IC90 ([9]; read-out: IC90 H460 Monolayer 0.6% O2)?
A: 250 nM

Q: And the IC90 ([9]; read-out: IC90 H460 Monolayer Air)?
A: 4000 nM

Q: What about the IC90 ([9]; read-out: IC90 H460 Monolayer N2) of the same molecule?
A: 70 nM

Q: What about the IC50 (NCI-H460 cells [10]; [16]) of the same molecule?
A: 4000 nM

Q: What about the IC50 (NCI-H460 cells [10]; [17]) of the same molecule?
A: 10 nM

Q: What about the IC50 (MES-SA cells; read-out: IC50 MES-SA Air) of the same molecule?
A: 2000 nM

Q: And the IC50 (MES-SA cells; read-out: IC50 MES-SA Anoxia)?
A: 100 nM

Q: And the IC50 (MES-SA/Dx5 cells; read-out: IC50 MES-SA/Dx5 Air)?
A: 800 nM

Q: And the IC50 (MES-SA/Dx5 cells; [18])?
A: 100 nM

Q: What about the IC50 (H460 cell line; [19]) of the same molecule?
A: 10 nM

Q: What about the IC50 (H460 cell line; NCI-H460, read-out: IC50 in cells under hypoxia) of the same molecule?
A: 50 nM

Q: What about the IC50 (H460 cell line; [20]) of the same molecule?
A: 4000 nM

Q: And the “fold more toxic in hypoxic cells than in normoxic cells” value (H460 cell line; anti-proliferation cytotoxicity assay)?
A: 400 fold

Q: What about the “HCR P” value (H460 cell line) of the same molecule?
A: 400

Q: With Cn1c(COP(=O)(N(CCCl)C2CC2)N(CCCl)C2CC2)cnc1[N+](=O)[O-] [Compound 7] as the molecule, how does the “Metabolic stability (MLM) (% at 30 min)” value [11] read?
A: 0%

Q: And the MTD (in vivo [12])?
A: 250 mg/kg

Q: And the “Plasma stability (% at 30 min)” value [13]?
A: 85%

Q: What about the IC50 (NCI-H460 cells [10]; [16]) of the same molecule?
A: 25000 nM

Q: And the IC50 (NCI-H460 cells [10]; [17])?
A: 140 nM

Q: And the IC50 (HT29 cells; read-out: IC50 HT29 Air)?
A: > 100000 nM

Q: What about the IC50 (HT29 cells; read-out: IC50 HT29 Anoxia) of the same molecule?
A: 7000 nM

Q: And the IC50 (MES-SA/Dx5 cells; read-out: IC50 MES-SA/Dx5 Air)?
A: 83000 nM

Q: What about the IC50 (MES-SA/Dx5 cells; [18]) of the same molecule?
A: 590 nM

Q: And the IC50 (H460 cell line; [19])?
A: 140 nM

Q: What about the IC50 (H460 cell line; [20]) of the same molecule?
A: 25000 nM

Q: What about the “HCR P” value (H460 cell line) of the same molecule?
A: 180

Q: What about the “HT29 HCR P” value (HT29) of the same molecule?
A: >5

Q: And the IC50 (HT29; [21])?
A: 7000 nM

Q: And the IC50 (HT29; HT-29, read-out: HT29 P H, value in parentheses)?
A: 100000 nM

Q: What about the IC50 (HT29; [22]) of the same molecule?
A: > 100000 nM

Q: And the “HT29 HCR P, value in parentheses” value (HT29; parentheses not explained)?
A: (1)

Q: What about the “DX-5 HCR” value (DX-5) of the same molecule?
A: 140

Q: And the IC50 (DX-5; [23])?
A: 600 nM

Q: What about the IC50 (DX-5; [24]) of the same molecule?
A: 83000 nM

Q: For Cn1c(COP(=O)(N(CCCl)CCCl)N(CCCl)CCCl)cnc1[N+](=O)[O-] [Compound 6], which “Metabolic stability (MLM) (% at 30 min)” value [11] is on record?
A: 0%

Q: What about the MTD (MTD (Table 2B)) of the same molecule?
A: 250 mg/kg

Q: What about the “Plasma stability (% at 30 min)” value [13] of the same molecule?
A: 60%

Q: What about the IC50 (NCI-H460 cells [10]; [16]) of the same molecule?
A: > 100000 nM

Q: And the IC50 (NCI-H460 cells [10]; [17])?
A: 700 nM

Q: What about the IC50 (HT29 cells; read-out: IC50 HT29 Air) of the same molecule?
A: > 100000 nM

Q: And the IC50 (HT29 cells; read-out: IC50 HT29 Anoxia)?
A: 22000 nM

Q: What about the IC50 (MES-SA/Dx5 cells; read-out: IC50 MES-SA/Dx5 Air) of the same molecule?
A: > 100000 nM

Q: And the IC50 (MES-SA/Dx5 cells; [18])?
A: 5000 nM

Q: And the IC50 (H460 cell line; [19])?
A: 700 nM

Q: And the IC50 (H460 cell line; [20])?
A: > 100000 nM

Q: And the “HCR P” value (H460 cell line)?
A: >140

Q: And the “HT29 HCR P” value (HT29)?
A: >2

Q: And the IC50 (HT29; [21])?
A: 55000 nM

Q: What about the IC50 (HT29; [22]) of the same molecule?
A: > 100000 nM

Q: And the “DX-5 HCR” value (DX-5)?
A: >20

Q: What about the IC50 (DX-5; [23]) of the same molecule?
A: 5000 nM

Q: What about the IC50 (DX-5; [24]) of the same molecule?
A: > 100000 nM

Q: Which “Metabolic stability (% at 30 min) HLM” value [14] does the source give for C[C@]12CC[C@H]3[C@@H](CCC4=CC(=O)CC[C@@]43C)[C@@H]1CC[C@@H]2O [Testosterone, reference compound] here?
A: 65%

Q: And the “Metabolic stability (% at 30 min) RLM” value ([15]; Table 1, first study)?
A: 0%

Q: And the “Metabolic stability (% at 30 min) RLM” value ([15]; Table 2A, second study)?
A: 33%

Q: What about the “Metabolic stability (% at 30 min) MLM” value ([11]; Table 1, first study, 5 μM) of the same molecule?
A: 6%
